US8580820B2, “Tubulysin compounds with high cytotoxicity, pharmaceutical compositions thereof, and method of use thereof” (Kemtech S.r.L., priority 2009, dated 2013)
Read-outs that look alike come from different tables or passages of the source.

Assays:
[1] = tested on: A2780, HL60, C6 and HT29 cell lines; test: Cytotoxicity in vitro, summary over the cell lines of example 14; format: cell-based, human; rat; settings: all cell lines of Tables 1 and 2; read-out: GI50 values determined by means of the cellular viability values
Method: (§1) The cytotoxic effects of the compounds of formula (A) were evaluated by treating […] with different concentrations of the compounds under screening. The following cell lines were used: A2780 (human ovarian carcinoma), HL60 (human leukaemia), C6 (rat glioma) and HT29 (adenocarcinoma of human colon). The cell lines have been obtained by ECACC (European Collection of Cell Cultures).
The cell lines have been cultured in 75 cm^2 flasks with culture medium DMEM (Dulbecco's Medium Eagle Modified, Sigma Aldrich®) and the following additives (Sigma Aldrich®): L-Glutamine 2 mM, 10% Fetal Bovine Serum, Penicillin/-Streptomycin, Fungizone, Gentamycin. The incubation was carried out in modified atmosphere incubators (37° C., 5% CO2). When cell confluence was obtained, the cells were propagated by dilution in a ratio 1:3/1:5 by using a Trypsin-EDTA 1× solution and then transferred into 96 well plates in the suitable culture medium. The cells were then treated for 72 hours with different concentrations (10^−13+10^−4 M) of the compounds under examination. For the tests in vitro the compounds obtained in the examples 1.15 and 6.8 were solubilised in dimethylsulphoxide (DMSO). […]
(§2) In order to control the cellular viability, the ATPlite test (Perkin Elmer) was used. […] For the reading the Victor 3 instrument by Perkin Elmer was used.
Four readings were taken for each sample solution. […]

[2] = tested on: HT29 (adenocarcinoma of human colon); test: Cytotoxicity in vitro, cellular viability (ATPlite Perkin Elmer test), HT29; format: cell-based; design: cellular viability (ATPlite Perkin Elmer test): unit not given here; settings: for cellular viability (ATPlite Perkin Elmer test): 72 hours
Method: as §1
(§3) The cell lines have been cultured in 75 cm^2 flasks with culture medium DMEM (Dulbecco's Medium Eagle Modified, Sigma Aldrich®) and the following additives (Sigma Aldrich®): L-Glutamine 2 mM, 10% Fetal Bovine Serum, Penicillin/-Streptomycin, Fungizone, Gentamycin. The incubation was carried out in modified atmosphere incubators (37° C., 5% CO2). When cell confluence was obtained, the cells were propagated by dilution in a ratio 1:3/1:5 by using a Trypsin-EDTA 1× solution and then transferred into 96 well plates in the suitable culture medium. The cells were then treated for 72 hours with different concentrations (10^−13+10^−4 M) of the compounds under examination. For the tests in vitro the compounds obtained in the examples 1.15 and 6.8 were solubilised in dimethylsulphoxide (DMSO). All the tests were performed with a constant DMSO concentration equal to 0.1% by weight.
(§4) In order to control the cellular viability, the ATPlite test (Perkin Elmer) was used. The APTlite test evaluates the ATP production. APT is a marker of cellular viability as it is present in all the metabolically active cells. The test’ is based on the chemiluminiscence due to the ATP reaction with the luciferase and the D-luciferin. The emitted light is proportional to the ATP concentration. For the reading the Victor 3 instrument by Perkin Elmer was used.
(§5) Four readings were taken for each sample solution. The results (average values) for the cytotoxicity of the compounds of formula (A) obtained in examples 1.15 and 6.8 are reported respectively in Tables 1 and 2. It is noted that the GI50 values determined by means of the cellular viability values are lower than 2 nM. This confirms the high cytotoxicity of the compound of formula (A).

HL60 (human leukaemia) = test: Cytotoxicity in vitro, cellular viability (ATPlite Perkin Elmer test), HL60; format: cell-based; design: cellular viability (ATPlite Perkin Elmer test): unit not given here; settings: for GI50: Homo sapiens
Method: as §1, §3, §4, §5

[3] = tested on: A2780 (human ovarian carcinoma); test: Cytotoxicity in vitro, cellular viability (ATPlite Perkin Elmer test), A2780; format: cell-based; design: cellular viability (ATPlite Perkin Elmer test): unit not given here; settings: for GI50: Homo sapiens
Method: as §1, §3, §4, §5

C6 (rat glioma) = test: Cytotoxicity in vitro, cellular viability (ATPlite Perkin Elmer test), C6; format: cell-based; settings: Rattus norvegicus; cellular line C6; read-out: GI50
Method: as §1, §3, §4, §5

[4] = tested on: cellular lines HL60, A 2780, C6; test: Cytotoxicity test in vitro on cellular lines (comparative examples 16.10, 17.10); format: cell-based, human; rat
Method: as §1
The cell lines have been cultured in 75 cm^2 flasks with culture medium DMEM (Dulbecco's Medium Eagle Modified, Sigma Aldrich®) and the following additives (Sigma Aldrich®): L-Glutamine 2 mM, 10% Fetal Bovine Serum, Penicillin/-Streptomycin, Fungizone, Gentamycin. The incubation was carried out in modified atmosphere incubators (37° C., 5% CO2). When cell confluence was obtained, the cells were propagated by dilution in a ratio 1:3/1:5 by using a Trypsin-EDTA 1× solution and then transferred into 96 well plates in the suitable culture medium. […]
as §2
The compound obtained in example 16.9 has been evaluated with the cytotoxicity test in vitro on cellular lines. […]
The cytotoxicity of the compound of the example 17.9 comparative was evaluated as described in example 16.10 comparative for the compound 16.9.

In the case of CCC(C)[C@H](NC(=O)[C@H]1CCCCN1C)C(=O)N(Cc1ccccc1)[C@H](C[C@@H](OC(C)=O)c1nc(C(=O)N[C@@H](Cc2ccccc2)C[C@H](C)C(=O)O)cs1)C(C)C (stereo in doubt) [Example 1.15, (2S,4R)-4-(2-((1R,3R)-1-acetoxy-3-((2S,3R)—N-benzyl-3-methyl-2-(1-methylpiperidin-2-carboxamido)pentanamido)-4-methylpentyl)thiazol-4-carboxamido)-2-methyl-5-phenyl-pentanoic acid], the GI50 [1] is reported as less than 2 nM, the GI50 ([2]; Homo sapiens, HT-29, 72 hours, value is GI50 multiplied by 10^9, Table 1) is reported as 0.312 nM and the “cellular viability (ATPlite Perkin Elmer test)” value (“cellular viability” below) ([2]; compound 10^−4 mole/litre) is reported as 15.14. The “cellular viability” value ([2]; compound 10^−5 mole/litre) was 14.55, the “cellular viability” value ([2]; compound 10^−6 mole/litre) was 15.43 and the “cellular viability” value ([2]; compound 10^−7 mole/litre) was 16.85. The “cellular viability” value ([2]; compound 10^−8 mole/litre) was 17.55, the “cellular viability” value ([2]; compound 10^−9 mole/litre) was 20.77 and the “cellular viability” value ([2]; compound 10^−10 mole/litre) was 99.08. For the same compound, the “cellular viability” value ([2]; compound 10^−11 mole/litre) was 102.2, the “cellular viability” value ([2]; compound 10^−12 mole/litre) was 103.2 and the “cellular viability” value ([2]; compound 10^−13 mole/litre) was 104.5. The “GI50 × 10^9” value (HL60 (human leukaemia); HL60, 72 hours, value is GI50 multiplied by 10^9, Table 1) was 0.0004 moles/litre, the “cellular viability” value (HL60 (human leukaemia); HL60, compound 10^−4 mole/litre, 72 hours) was 0.47 and the “cellular viability” value (HL60 (human leukaemia); HL60, compound 10^−5 mole/litre, 72 hours) was 2.57. For the same compound, the “cellular viability” value (HL60 (human leukaemia); HL60, compound 10^−6 mole/litre, 72 hours) was 2.99, the “cellular viability” value (HL60 (human leukaemia); HL60, compound 10^−7 mole/litre, 72 hours) was 2.69 and the “cellular viability” value (HL60 (human leukaemia); HL60, compound 10^−8 mole/litre, 72 hours) was 2.94. The “cellular viability” value (HL60 (human leukaemia); HL60, compound 10^−9 mole/litre, 72 hours) was 3.66, the “cellular viability” value (HL60 (human leukaemia); HL60, compound 10^−10 mole/litre, 72 hours) was 8.29 and the “cellular viability” value (HL60 (human leukaemia); HL60, compound 10^−11 mole/litre, 72 hours) was 22.65. For the same compound, the “cellular viability” value (HL60 (human leukaemia); HL60, compound 10^−12 mole/litre, 72 hours) was 34.26, the “cellular viability” value (HL60 (human leukaemia); HL60, compound 10^−13 mole/litre, 72 hours) was 98.98 and the GI50 ([3]; 72 hours, value is GI50 multiplied by 10^9, Table 1, read-out: GI50 × 10^9) was 0.0018 nM. The “cellular viability” value ([3]; compound 10^−4 mole/litre, 72 hours) was 3.10, the “cellular viability” value ([3]; compound 10^−5 mole/litre, 72 hours) was 7.23 and the “cellular viability” value ([3]; compound 10^−6 mole/litre, 72 hours) was 9.60. For the same compound, the “cellular viability” value ([3]; compound 10^−7 mole/litre, 72 hours) was 10.60, the “cellular viability” value ([3]; compound 10^−8 mole/litre, 72 hours) was 11.78 and the “cellular viability” value ([3]; compound 10^−9 mole/litre, 72 hours) was 25.08. The “cellular viability” value ([3]; compound 10^−10 mole/litre, 72 hours) was 25.04, the “cellular viability” value ([3]; compound 10^−11 mole/litre, 72 hours) was 32.71 and the “cellular viability” value ([3]; compound 10^−12 mole/litre, 72 hours) was 65.66. For the same compound, the “cellular viability” value ([3]; compound 10^−13 mole/litre, 72 hours) was 100.1.

For CC[C@H](C)[C@H](NC(=O)[C@H]1CCCCN1C)C(=O)N(CCOC)[C@H](C[C@@H](OC(C)=O)c1nc(C(=O)NC)cs1)C(C)C [Example 15.4, (1R,3R)-3-((2S,3S)—N-(2-methoxyethyl)-3-methyl-2-((R)-1-methylpiperidine-2-carboxamido)pentanamido)-4-methyl-1-(4-(methylcarbamoyl)thiazol-2-yl)pentyl acetate, reference compound], the cell viability (HL60 (human leukaemia); HL60, concentration of 10^−10 mole/liter) was 96%, the cell viability (HL60 (human leukaemia); HL60, concentration of 10^−11 mole/liter) was 99.8% and the “times less toxic than the compounds of the present invention” value (HL60 (human leukaemia); HL60, ratio of GI50 values) was 10^3 times. The GI50 (HL60 (human leukaemia); HL-60, HL60, read-out: citotoxicity, expressed as GI50) was 10 nM.

Compound CC[C@H](C)[C@H](NC(=O)C1CCCCN1C)C(=O)N[C@H](C[C@@H](OC(C)=O)c1nc(C(=O)N[C@@H](Cc2ccccc2)C[C@H](C)C(=O)O)cs1)c1ccc(OC)cc1 (stereo partly drawn) [Example 16.9, (2S,4R)-4-(2-((1R,3R)-1-acetoxy-3-(4-methoxy-phenyl)-3-((2S,3S)-3-methyl-2-((R)-1-methylpiperidin-2-carbox-amido)pentanamido)propyl)thiazol-4-carboxamido)-2-methyl-5-phenylpentanoic acid, reference compound] has a GI50 (C6 (rat glioma)) greater than 10 µM, a GI50 (HL60 (human leukaemia); cellular line HL 60, read-out: GI50) greater than 10000 nM and a GI50 ([3]; cellular line A 2780, read-out: GI50) greater than 100000 nM.

With CC[C@H](C)[C@H](NC(=O)[C@H]1CCCCN1C)C(=O)N[C@H](C[C@@H](OC(C)=O)c1nc(C(=O)N[C@@H](Cc2ccccc2)C[C@H](C)C(=O)O)cs1)C1CCCCC1 [Example 17.9, (2S,4R)-4-(2-((1R,3R)-1-acetoxy-3-cyclohexyl-3-((2S,3S)-3-methyl-2-((R)-1-methyl-piperidin-2-carboxamido)pentanamido)propyl)thiazol-4-carboxamido)-2-methyl-5-phenyl pentanoic acid] the GI50 ([4]; Homo sapiens, HL60/A, evaluated as in example 16.10, cellular line not stated) was 10 µM and the “times higher than the GI50 of the compounds of the invention” value ([4]; ratio of GI50 values) was 10,000 times.
